Assay [1] relates to A549. In words: Cytotoxicity against Homo sapiens (human) A549 cells assessed as cell viability after 72 hr by MTT assay. The assay is classed as functional, cell-based. As to conditions: A549, 72 h. Background: Formazan colour is commonly taken as a measure of viable cells.
Assay [2] has as its system HCT-15. The assay is described as follows: Cytotoxicity against Homo sapiens (human) HCT15 cells assessed as cell viability after 72 hr by MTT assay. As to conditions: HCT-15, 72 h. It counts as functional, cell-based.
For assay [3], the system named is HeLa. In words: Cytotoxicity against Homo sapiens (human) HeLa cells assessed as cell viability after 72 hr by MTT assay. The assay is classed as functional, cell-based.
The subject of assay [4] is A549. In words: Cell cycle arrest in Homo sapiens (human) A549 cells assessed as accumulation at G0/G1 phase at IC50 after 48 hr by propidium iodide staining-based flow cytometric analysis (reference value: 74.9%). It counts as functional. In general terms: In flow cytometry, cells or beads pass a laser one at a time.
Assay [5] deals with HeLa. The assay is described as follows: Cell cycle arrest in Homo sapiens (human) HeLa cells assessed as accumulation at G0/G1 phase at IC50 after 48 hr by propidium iodide staining-based flow cytometric analysis (reference value: 63.3%). The assay is classed as functional.
For assay [6], the system named is A549. The assay is described as follows: Cell cycle arrest in Homo sapiens (human) A549 cells assessed as accumulation at sub G0 phase at IC50 after 48 hr by propidium iodide staining-based flow cytometric analysis (reference value: 1.37%). The assay is classed as functional.
Assay [7] relates to HeLa. The assay is described as follows: Cell cycle arrest in Homo sapiens (human) HeLa cells assessed as accumulation at sub G0 phase at IC50 after 48 hr by propidium iodide staining-based flow cytometric analysis (reference value: 0.88%). It counts as functional.
The test system of assay [8] is A549. In words: Cell cycle arrest in Homo sapiens (human) A549 cells assessed as accumulation at G2/M phase at IC50 after 48 hr by propidium iodide staining-based flow cytometric analysis (reference value: 11.03%). The assay is classed as functional.
Assay [9] has as its system HeLa. The assay is described as follows: Cell cycle arrest in Homo sapiens (human) HeLa cells assessed as accumulation at G2/M phase at IC50 after 48 hr by propidium iodide staining-based flow cytometric analysis (reference value: 22.68%). The assay is classed as functional.
In assay [10] the test system is A549. The assay is described as follows: Cell cycle arrest in Homo sapiens (human) A549 cells assessed as accumulation at S phase at IC50 after 48 hr by propidium iodide staining-based flow cytometric analysis (reference value: 12.83%). It counts as functional.
Assay [11] concerns HeLa. The assay is described as follows: Cell cycle arrest in Homo sapiens (human) HeLa cells assessed as accumulation at S phase at IC50 after 48 hr by propidium iodide staining-based flow cytometric analysis (reference value: 14.14%). The assay is classed as functional.
The test system of assay [12] is A549. The assay is described as follows: Cell cycle arrest in Homo sapiens (human) A549 cells assessed as accumulation at sub G0 phase at 2 uM after 48 hr by propidium iodide staining-based flow cytometric analysis (reference value: 1.37%). The assay is classed as functional.
Assay [13] has as its system HeLa. The assay is described as follows: Cell cycle arrest in Homo sapiens (human) HeLa cells assessed as accumulation at sub G0 phase at 2 uM after 48 hr by propidium iodide staining-based flow cytometric analysis (reference value: 0.88%). It counts as functional.
In assay [14] the test system is A549. In words: Cell cycle arrest in Homo sapiens (human) A549 cells assessed as accumulation at G2/M phase at 2 uM after 48 hr by propidium iodide staining-based flow cytometric analysis (reference value: 11.03%). It counts as functional.
The test system of assay [15] is HeLa. In words: Cell cycle arrest in Homo sapiens (human) HeLa cells assessed as accumulation at G2/M phase at 2 uM after 48 hr by propidium iodide staining-based flow cytometric analysis (reference value: 22.68%). It counts as functional.
The subject of assay [16] is HeLa. The assay is described as follows: Cell cycle arrest in Homo sapiens (human) HeLa cells assessed as accumulation at S phase at 2 uM after 48 hr by propidium iodide staining-based flow cytometric analysis (reference value: 14.14%). It counts as functional.
The test system of assay [17] is HeLa. The assay is described as follows: Cell cycle arrest in Homo sapiens (human) HeLa cells assessed as accumulation at G0/G1 phase at 2 uM after 48 hr by propidium iodide staining-based flow cytometric analysis (reference value: 63.3%). It counts as functional.

In ChEMBL document CHEMBL3046875, “Potential cytotoxic and apoptosis inducing agents: synthesis and evaluation of methoxy-substituted chalcones against human lung and cervical cancers” (Med Chem Res, 2013) one finds IC50 and Activity data, which are given here for 13 molecules.

Usually IC50 stands for the concentration that inhibits the measured activity by half.

Molecules are shown by their SMILES. Bounds are passed on as bounds.

As for `COc1cc(/C=C/C(=O)c2ccccc2F)cc(OC)c1OC`, the IC50 was over 100000 nM in [1], 134 nM in assay [2] and 228 nM in assay [3].

In the case of `COc1cc(/C=C/C(=O)c2ccccc2F)cc(OC)c1`, the Activity stood at 2.66% in assay [4]; 70.2% in assay [5]; 61.59% in [6]; 9.11% in [7]; 2.22% in assay [8]; 26.68% in [9]. In addition, the Activity in assay [10] was 9.85%; in assay [11] it was 18.21%. The values for the half-maximal inhibitory concentration (IC50) in [1], in assay [2] and in assay [3] were 43.6 nM, 20.9 nM and 62.9 nM, respectively.

Consider `COc1cc(/C=C/C(=O)c2ccc(OC)cc2F)cc(OC)c1`, for which the values for the half-maximal inhibitory concentration (IC50) in assay [1], in assay [2] and in assay [3] were 101 nM, 55.3 nM and 243 nM, respectively.

`COc1ccc(C(=O)/C=C/c2cc(OC)c(OC)cc2OC)c(F)c1`: the IC50 was 202 nM in assay [1], 72.2 nM in [2] and over 100000 nM in [3].

Turning to `COc1ccc(C(=O)/C=C/c2ccc(OC)cc2OC)c(F)c1`, the results for the half-inhibitory concentration (IC50) in assay [1], in assay [2] and in assay [3] were over 100000 nM, 72.2 nM and 260 nM, respectively.

For `COc1ccc(C(=O)/C=C/c2c(OC)cc(OC)cc2OC)c(F)c1`, the IC50 in assay [1], in [2] and in assay [3] was over 100000 nM each time.

For the molecule `COc1cccc2c1C(=O)c1c(O)c3c(c(O)c1C2=O)C[C@@](O)(C(=O)CO)C[C@@H]3O[C@H]1C[C@H](N)[C@H](O)[C@H](C)O1.Cl` [DOXORUBICIN HYDROCHLORIDE], the Activity in [12] is recorded as 1.34%; in assay [13], 61.55%; in assay [14] it was 0.98%; in [15], 36.19%; in assay [16], 55.74%; in assay [17], 30.86%.

As for `COc1ccc(OC)c(/C=C/C(=O)c2ccccc2F)c1`, the Activity in [4] was 1.36%; in assay [5], 7.9%; in [6], 20.31%; in assay [7] it was 27.52%; in [8], 16.84%; in [9], 35.28%. In addition, the Activity in assay [10] stood at 89.78%; in assay [11], 0.94%. Also, the IC50 in [1] came to 114 nM; in assay [2], 61.1 nM; in [3] it was 96.1 nM.

Turning to `COc1cc(OC)c(OC)cc1/C=C/C(=O)c1ccccc1F`, the values for the IC50 in [1], in [2] and in assay [3] were 79 nM, 55.3 nM and 293 nM, respectively.

For the molecule `COc1ccc(C(=O)/C=C/c2cc(OC)c(OC)c(OC)c2)c(F)c1`, the IC50 was 108 nM in assay [1], 50.5 nM in assay [2] and 144 nM in assay [3].

For `COc1cc(OC)c(/C=C/C(=O)c2ccccc2F)c(OC)c1`, the half-maximal inhibitory concentration (IC50) in assay [1] is over 100000 nM; in assay [2] it was 79 nM; in assay [3], 50.6 nM.

With `COc1ccc(C(=O)/C=C/c2ccc(OC)c(OC)c2OC)c(F)c1`, the figures for the 50% inhibitory concentration (IC50) in assay [1], in [2] and in [3] were 108 nM, 31.7 nM and 211 nM, respectively.

Consider `COc1ccc(/C=C/C(=O)c2ccccc2F)c(OC)c1`, for which the Activity stood at 5.64% in [4]; 22.61% in assay [5]; 20.48% in assay [6]; 29.37% in [7]; 6.18% in assay [8]; 56.9% in assay [9]. Besides, the figures for the Activity in assay [10] and in [11] were 59.98% and 12.64%, respectively. Moreover, the IC50 in assay [1] was determined as 87.3 nM; in [2], 55.9 nM; in assay [3] it was 175 nM.
